In publication PMC8946265, “Withanolide-Type Steroids from Physalis nicandroides Inhibit HIV Transcription” (Journal of Natural Products, 2021):
Like-named read-outs stand apart in the source and are kept apart here.

Tests used:
[1] = tested on: X4 recombinant HIV (NL4.3-Ren); details: for SI: selectivity index (CC50/IC50): CC50 MT-2 / IC50 HIV NL4.3-Ren
in vitro = details: human
[2] = tested on: X4 recombinant HIV (NL4.3-Ren); test: microbe, parasite or virus in culture
[3] = tested on: HIV transcription (pNL4.3-Luc); test: cells; assay type: cell-based, HIV-1; details: for IC50: Human immunodeficiency virus 1, MT2, 48 h, read-out: IC50 viral transcription; for SI HIV transcription/HIV infection (specificity index): IC50 transcription / IC50 HIV infection; for effect on HIV transcription (in words): MT-2 cells transfected with NL4.3-Luc, 0.7 to 100 μM
[4] = tested on: VSV pseudotyped HIV (VSV-HIV)
[5] = tested on: VSV pseudotyped HIV (VSV-HIV); test: microbe, parasite or virus in culture; details: Vesicular stomatitis virus, MT2, 48 h, read-out: IC50 VSV-HIV
[6] = Human immunodeficiency virus 1, MT2, 48 h, read-out: IC50 (CI95%; R^2) anti-HIV activity, MT-2 cells, NL4.3-Ren, 48 h, mean of at least three independent experiments
[7] = Human immunodeficiency virus 1, MT2, read-out: IC50 HIV, MT-2 cells, HIV infection, values repeated from Table 3 (more decimals)

Row | Molecule | SI: selectivity index (CC50/IC50) [1] | CC50 (in vitro) | IC50 [2, 6] | other results
1 | CC(=O)O[C@H]1[C@@H]2O[C@]2([C@H](C)[C@H]2CC(C)=C(C)C(=O)O2)[C@@]2(C)CC[C@H]3[C@@H](C[C@@H](O)[C@]45C=C[C@H](OO4)C(=O)[C@]35C)[C@@]12O [Compound 4, 15α-acetoxy-16β,17β-epoxy-6β,14β-dihydroxy-1-oxo-2α,5α-dioxy-witha-3,24-dien-26,22-olide] | >1.4 | > 100 µM | 72.7 µM | 
2 | CC(=O)O[C@H]1C=C([C@H](C)[C@H]2CC(C)=C(C)C(=O)O2)[C@@]2(C)CC[C@H]3[C@@H](C[C@H]4O[C@]45CC=CC(=O)[C@]35C)[C@@]12O [Compound 7, physagulin A] |  | 16 µM | < 2 µM | IC50 [3]: 1.97 µM; SI HIV transcription/HIV infection (specificity index) [3]: 1.02; effect on HIV transcription (in words) [3]: inhibited HIV transcription; fold more potent (antiviral effect) than 17β-hydroxy-withanolide 5 ([1]; IC50 ratio versus compound 5): > 50 fold; fold more potency (anti-HIV) than dihydroxy compound 8 ([1]; IC50 ratio versus compound 8): 35.7 fold; fold more potency (anti-HIV) than halohydrin 9 ([1]; IC50 ratio versus compound 9): 4.7 fold; SI VSV-HIV/HIV (specificity index) [4]: 1.64; IC50 [2, 7]: 1.94 µM; IC50 [5]: 3.2 µM
3 | CC(=O)O[C@H]1C=C([C@H](C)[C@H]2CC(C)=C(C)C(=O)O2)[C@@]2(C)CC[C@H]3[C@@H](C[C@@H](O)[C@@]4(O)CC=CC(=O)[C@]34C)[C@]12O [Compound 8, withaminimin] | >1.5 | > 100 µM | 67.9 µM | 
4 | CC(=O)O[C@H]1[C@@H]2O[C@]2([C@H](C)[C@H]2CC(C)=C(C)C(=O)O2)[C@@]2(C)CC[C@H]3[C@@H](C[C@H]4O[C@]45[C@@H](O)C=CC(=O)[C@]35C)[C@@]12O [Compound 13, physagulin F] | 15.5 | 15.2 µM | < 2 µM | IC50 [3]: 1.14 µM; SI HIV transcription/HIV infection (specificity index) [3]: 1.13; effect on HIV transcription (in words) [3]: inhibited HIV transcription; SI VSV-HIV/HIV (specificity index) [4]: 2.66; IC50 [2, 7]: 1.01 µM; IC50 [5]: 2.67 µM
5 | CC(=O)O[C@H]1C[C@@](O)([C@H](C)[C@H]2CC(C)=C(C)C(=O)O2)[C@@]2(C)CC[C@H]3[C@@H](C[C@H]4O[C@]45CC=CC(=O)[C@]35C)[C@@]12O [Compound 5, physagulide I] |  | > 100 µM | > 100 µM | 
6 | C=C1C(=O)O[C@@H]([C@@H](C)[C@]2(O)C[C@H](OC(C)=O)[C@]3(O)[C@@H]4C[C@H]5O[C@]56CC=CC(=O)[C@]6(C)[C@H]4CC[C@@]32C)C[C@@]1(C)O [Compound 1, 15α-acetoxy-5β,6β-epoxy-14β,17β,24β-trihydroxy-1-oxo-witha-2,25(27)-dien-26,22-olide] | >8 | > 100 µM | 12.4 µM | 
7 | C=C1C(=O)O[C@@H]([C@@H](C)[C@]2(O)C[C@H](OC(C)=O)[C@]3(O)[C@@H]4C[C@H]5O[C@]56CC=CC(=O)[C@]6(C)[C@H]4CC[C@@]32C)C[C@]1(C)O [Compound 2, 15α-acetoxy-5β,6β-epoxy-14β,17β,24α-trihydroxy-1-oxo-witha-2,25(27)-dien-26,22-olide] | >5.3 | > 100 µM | 18.7 µM | 
8 | CC(=O)O[C@H]1C=C([C@H](C)[C@H]2CC(C)=C(C)C(=O)O2)[C@@]2(C)CC[C@H]3[C@@H](C[C@@H](O)[C@]45C=C[C@H](OO4)C(=O)[C@]35C)[C@@]12O [Compound 3, 15α-acetoxy-6β,14β-dihydroxy-1-oxo-2α,5α-dioxy-witha-3,16,24-trien-26,22-olide] | >1.3 | > 100 µM | 76.1 µM | 
9 | CC(=O)O[C@H]1C[C@H]([C@H](C)[C@H]2CC(C)=C(C)C(=O)O2)[C@@]2(C)CC[C@H]3[C@@H](C[C@@H](O)[C@@]4(O)CC=CC(=O)[C@]34C)[C@@]12O [Compound 10, physagulin J] | >3.1 | > 100 µM | 32.7 µM | 
10 | CC(=O)O[C@H]1[C@@H]2O[C@]2([C@H](C)[C@H]2CC(C)=C(C)C(=O)O2)[C@@]2(C)CC[C@H]3[C@@H](C[C@@H](O)[C@@]4(O)CC=CC(=O)[C@]34C)[C@@]12O [Compound 12, physagulin C] | >4.7 | > 100 µM | 21.1 µM | 
11 | C[C@H](Cn1cnc2c(N)ncnc21)OCP(=O)(O)O [TFV, tenofovir, reference compound] |  | > 100 µM | 1.7 µM | IC50 [2, 7]: 1.69 µM
12 | CC(=O)O[C@H]1C=C([C@H](C)[C@H]2CC(C)=C(C)C(=O)O2)[C@@]2(C)CC[C@H]3[C@@H](C[C@@H](O)[C@@]4(Cl)CC=CC(=O)[C@]34C)[C@]12O [Compound 9, physagulin B] | >11.2 | > 100 µM | 8.9 µM | 
13 | enfuvirtide |  |  |  | IC50 ([1]; read-out: IC50 HIV, MT-2 cells, HIV infection, values repeated from Table 3 (more decimals)): 0.015 µM; activity as VSV-HIV inhibitor (in words) [4]: not active; IC50 ([4]; VSV pseudotyped (VSV-, 48 h)): > 1 µM; SI VSV-HIV/HIV (specificity index) ([4]; VSV pseudotyped (VSV-, 48 h)): >66.67
